Reference: patent US11414395B2, “Heterocyclic compounds as modulators of mGluR7” (PRAGMA Therapeutics, priority 2017, dated 2022)

What follows are compounds tested against human mGluR7 (Homo sapiens (Human), UniProt Q14831) (assay: Inositol monophosphate production assay (IP1 assay), inhibition of L-AP4 response). Settings: mean IC50 from at least two independent experiments; HEK293 cells transiently transfected with mGluR7, Gqtop and EAAC1; IP1 production vs EC80 L-AP4.
human mGluR7, sequence (Q14831 35-915): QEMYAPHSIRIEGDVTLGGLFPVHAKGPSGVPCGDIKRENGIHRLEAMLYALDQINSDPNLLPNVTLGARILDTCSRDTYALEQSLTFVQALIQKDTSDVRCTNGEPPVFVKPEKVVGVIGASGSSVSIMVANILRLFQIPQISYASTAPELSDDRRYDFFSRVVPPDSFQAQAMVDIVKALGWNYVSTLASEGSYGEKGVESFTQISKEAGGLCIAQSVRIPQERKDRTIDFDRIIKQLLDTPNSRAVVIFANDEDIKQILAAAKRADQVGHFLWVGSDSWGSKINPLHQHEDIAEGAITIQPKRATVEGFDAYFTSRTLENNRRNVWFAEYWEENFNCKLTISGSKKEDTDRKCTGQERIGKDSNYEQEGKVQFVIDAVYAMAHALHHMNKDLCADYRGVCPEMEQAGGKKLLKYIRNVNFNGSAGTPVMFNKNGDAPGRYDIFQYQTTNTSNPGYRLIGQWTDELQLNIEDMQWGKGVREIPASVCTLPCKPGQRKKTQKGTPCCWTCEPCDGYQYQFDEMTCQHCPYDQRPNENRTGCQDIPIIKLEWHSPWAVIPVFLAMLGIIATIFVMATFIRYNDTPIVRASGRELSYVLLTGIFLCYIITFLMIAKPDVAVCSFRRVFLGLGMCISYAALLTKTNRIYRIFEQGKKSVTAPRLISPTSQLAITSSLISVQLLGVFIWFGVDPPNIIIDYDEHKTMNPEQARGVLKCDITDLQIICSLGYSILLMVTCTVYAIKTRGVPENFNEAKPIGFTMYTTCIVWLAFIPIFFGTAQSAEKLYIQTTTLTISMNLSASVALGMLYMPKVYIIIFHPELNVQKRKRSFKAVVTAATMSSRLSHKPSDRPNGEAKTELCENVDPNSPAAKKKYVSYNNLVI
Assay type: cell-based
How it was run: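 HEK293 cells transiently co-expressing mGluR7, chimeric Gq/Gi (Gqtop) and EAAC1, switched to Glutamax medium 3 h before stimulation. IP1 measured by competitive HTRF; inhibition of an EC80-equivalent L-AP4 response, triplicate points, four-parameter fit to log IC50, mean of ≥2 experiments.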
In the case of COc1ccnc(-n2ncc3c(c2=O)CCC(c2ccc(C)cc2C)C3)n1 (stereo not shown) [Example 35, 6-(2,4-dimethylphenyl)-2-(4-methoxypyrimidin-2-yl)-5,6,7,8-tetrahydrophthalazin-1(2H)-one], the IC50 was < 500 nM. With Cc1c(C2CCc3c(cnn(-c4ncccn4)c3=O)C2)cccc1N(C)C (stereo not shown) [Example 96, 6-(3-(dimethylamino)-2-methylphenyl)-2-(pyrimidin-2-yl)-5,6,7,8-tetrahydrophthalazin-1(2H)-one] the IC50 was < 500 nM. In the case of COc1ccc(C)c(C2CCc3c(cnn(-c4ncc(Cl)cn4)c3=O)C2)c1 (stereo not shown) [Example 49, 2-(5-chloropyrimidin-2-yl)-6-(5-methoxy-2-methylphenyl)-5,6,7,8-tetrahydrophthalazin-1(2H)-one], the IC50 was < 500 nM. With CC(=O)Nc1cnc(-n2ncc3c(c2=O)CCC(c2ccc(C)cc2C)C3)nc1 (stereo not shown) [Example 117, N-(2-(6-(2,4-dimethylphenyl)-1-oxo-5,6,7,8-tetrahydrophthalazin-2(1H)-yl)pyrimidin-5-yl)acetamide] the IC50 was < 500 nM. For Cc1ccc(C2CCc3c(cnn(-c4cnccn4)c3=O)C2)c(C)c1 (stereo not shown) [Example 30, 6-(2,4-dimethylphenyl)-2-(pyrazin-2-yl)-5,6,7,8-tetrahydrophthalazin-1(2H)-one], the IC50 was < 500 nM. Cc1ccc(C2CCc3c(cnn(-c4ncccc4C)c3=O)C2)c(C)c1 (stereo not shown) [Example 20, 6-(2,4-dimethylphenyl)-2-(3-methylpyridin-2-yl)-5,6,7,8-tetrahydrophthalazin-1(2H)-one] was tested, and the IC50 was < 500 nM. COc1cccc(C2CCc3c(cnn(-c4ncc(C)cn4)c3=O)C2)c1C (stereo not shown) [Example 41, 6-(3-methoxy-2-methylphenyl)-2-(5-methylpyrimidin-2-yl)-5,6,7,8-tetrahydrophthalazin-1(2H)-one] was tested, and the IC50 was < 500 nM. Cc1ccc(C2CCc3c(cnn(-c4ccccn4)c3=O)C2)c(C)c1 (single isomer, unassigned; (+)) [Example 5, (+)-6-(2,4-dimethyl-phenyl)-2-pyridin-2-yl-5,6,7,8-tetrahydro-2H-phthalazin-1-one] was tested, and the IC50 was < 500 nM. Cc1ccc(C)c(C2CCc3c(cnn(-c4ncccn4)c3=O)C2)c1 (stereo not shown) [Example 81, 6-(2,5-dimethylphenyl)-2-(pyrimidin-2-yl)-5,6,7,8-tetrahydrophthalazin-1(2H)-one] was tested, and the IC50 was 500 to 1000 nM. COc1cccc(C2CCc3c(cnn(-c4ccc(N5CCOCC5)cn4)c3=O)C2)c1C (stereo not shown) [Example 113, 6-(3-methoxy-2-methylphenyl)-2-(5-morpholinopyridin-2-yl)-5,6,7,8-tetrahydrophthalazin-1(2H)-one] was tested, and the IC50 was < 500 nM. COc1nc(-n2ncc3c(c2=O)CCC(c2ccc(C)cc2C)C3)ncc1C (stereo not shown) [Example 56, 6-(2,4-dimethylphenyl)-2-(4-methoxy-5-methylpyrimidin-2-yl)-5,6,7,8-tetrahydrophthalazin-1(2H)-one] was tested, and the IC50 was < 500 nM. Compound COc1cccc(C2CCc3c(cnn(-c4ccccn4)c3=O)C2)c1 (stereo not shown) [Example 2, 6-(3-methoxyphenyl)-2-(pyridin-2-yl)-5,6,7,8-tetrahydrophthalazin-1(2H)-one] has an IC50 of 500 to 1000 nM. Cc1ccc(C2CCc3c(cnn(-c4cc(O)ccn4)c3=O)C2)c(C)c1 (stereo not shown) [Example 26, 6-(2,4-dimethylphenyl)-2-(4-hydroxypyridin-2-yl)-5,6,7,8-tetrahydrophthalazin-1(2H)-one] was tested, and the IC50 was < 500 nM. For O=c1c2c(cnn1-c1ccccn1)CC(c1cccc(OC3CC3)c1)CC2 (stereo not shown) [Example 66, 6-(3-cyclopropoxyphenyl)-2-(pyridin-2-yl)-5,6,7,8-tetrahydrophthalazin-1(2H)-one], the IC50 was < 500 nM. For O=c1c2c(cnn1-c1ncccn1)CC(c1cccc(OC3CC3)c1)CC2 (stereo not shown) [Example 85, 6-(3-cyclopropoxyphenyl)-2-(pyrimidin-2-yl)-5,6,7,8-tetrahydrophthalazin-1(2H)-one], the IC50 was < 500 nM. In the case of COc1ccc(C(F)(F)F)c(C2CCc3c(cnn(-c4ncccn4)c3=O)C2)c1 (stereo not shown) [Example 73, 6-(5-methoxy-2-(trifluoromethyl)phenyl)-2-(pyrimidin-2-yl)-5,6,7,8-tetrahydrophthalazin-1(2H)-one], the IC50 was 1000 to 30000 nM. For COc1ccc(F)c(C2CCc3c(cnn(-c4ncccn4)c3=O)C2)c1F (stereo not shown) [Example 90, 6-(2,6-difluoro-3-methoxyphenyl)-2-(pyrimidin-2-yl)-5,6,7,8-tetrahydrophthalazin-1(2H)-one], the IC50 was < 500 nM. COc1cccc(C2CCc3c(cnn(-c4ncc(O)cn4)c3=O)C2)c1C (stereo not shown) [Example 45, 2-(5-hydroxypyrimidin-2-yl)-6-(3-methoxy-2-methylphenyl)-5,6,7,8-tetrahydrophthalazin-1(2H)-one] was tested, and the IC50 was < 500 nM. For Cc1ccc(OC2CC2)cc1C1CCc2c(cnn(-c3ncccn3)c2=O)C1 (stereo not shown) [Example 84, 6-(5-cyclopropoxy-2-methylphenyl)-2-(pyrimidin-2-yl)-5,6,7,8-tetrahydrophthalazin-1(2H)-one], the IC50 was < 500 nM. For Cc1c(OCc2ccccc2)cccc1C1CCc2c(cnn(-c3ncccn3)c2=O)C1 (stereo not shown) [Example 106, 6-(3-(benzyloxy)-2-methylphenyl)-2-(pyrimidin-2-yl)-5,6,7,8-tetrahydrophthalazin-1(2H)-one], the IC50 was 1000 to 30000 nM. COc1cccc(C2CCc3c(cnn(-c4nccc(N5CCOCC5)n4)c3=O)C2)c1C (stereo not shown) [Example 46, 6-(3-methoxy-2-methylphenyl)-2-(4-morpholinopyrimidin-2-yl)-5,6,7,8-tetrahydrophthalazin-1(2H)-one] was tested, and the IC50 was < 500 nM. In the case of COc1ccc(C2CCc3c(cnn(-c4ccccn4)c3=O)C2)cc1 (stereo not shown) [Example 3, 6-(4-methoxyphenyl)-2-(pyridin-2-yl)-5,6,7,8-tetrahydrophthalazin-1(2H)-one], the IC50 was 1000 to 30000 nM. For COc1ccc(C)c(C2CCc3c(cnn(-c4ncc(C)cn4)c3=O)C2)c1 (stereo not shown) [Example 47, 6-(5-methoxy-2-methylphenyl)-2-(5-methylpyrimidin-2-yl)-5,6,7,8-tetrahydrophthalazin-1(2H)-one], the IC50 was < 500 nM. In the case of Cc1c(OC2CC2)cccc1C1CCc2c(cnn(-c3ncccn3)c2=O)C1 (stereo not shown) [Example 104, 6-(3-cyclopropoxy-2-methylphenyl)-2-(pyrimidin-2-yl)-5,6,7,8-tetrahydrophthalazin-1(2H)-one], the IC50 was < 500 nM. In the case of COc1cccc(C2CCc3c(cnn(-c4ncc(OCCO)cn4)c3=O)C2)c1C (stereo not shown) [Example 119, 2-(5-(2-hydroxyethoxy)pyrimidin-2-yl)-6-(3-methoxy-2-methylphenyl)-5,6,7,8-tetrahydrophthalazin-1(2H)-one], the IC50 was < 500 nM. In the case of COc1ccc(C)c(C2CCc3c(cnn(-c4ncccn4)c3=O)C2)c1 (stereo not shown) [Example 80, 6-(5-methoxy-2-methylphenyl)-2-(pyrimidin-2-yl)-5,6,7,8-tetrahydrophthalazin-1(2H)-one], the IC50 was < 500 nM. With Cc1ccc(C2CCc3c(cnn(-c4cscn4)c3=O)C2)c(C)c1 (stereo not shown) [Example 33, 6-(2,4-dimethylphenyl)-2-(thiazol-4-yl)-5,6,7,8-tetrahydrophthalazin-1(2H)-one] the IC50 was < 500 nM. In the case of Cc1cc(C)c(C2CCc3c(cnn(-c4ncccn4)c3=O)C2)c(C)c1 (stereo not shown) [Example 89, 6-mesityl-2-(pyrimidin-2-yl)-5,6,7,8-tetrahydrophthalazin-1(2H)-one], the IC50 was < 500 nM. With COc1cccc(C2CCc3c(cnn(-c4ncccn4)c3=O)C2)c1C (stereo not shown) [Example 40, 6-(3-methoxy-2-methylphenyl)-2-(pyrimidin-2-yl)-5,6,7,8-tetrahydrophthalazin-1(2H)-one] the IC50 was < 500 nM. In the case of Cc1ccc(C2CCc3c(cnn(-c4nc(C)cc(C)n4)c3=O)C2)c(C)c1 (stereo not shown) [Example 36, 6-(2,4-dimethylphenyl)-2-(4,6-dimethylpyrimidin-2-yl)-5,6,7,8-tetrahydrophthalazin-1(2H)-one], the IC50 was 1000 to 30000 nM. With Cc1ccc(C2CCc3c(cnn(-c4ccc(C#N)cn4)c3=O)C2)c(C)c1 (stereo not shown) [Example 22, 6-(6-(2,4-dimethylphenyl)-1-oxo-5,6,7,8-tetrahydrophthalazin-2(1H)-yl)nicotinonitrile] the IC50 was < 500 nM. In the case of COc1cccc(C2CCc3c(cnn(-c4ccc(C5CC5)cn4)c3=O)C2)c1C (stereo not shown) [Example 110, 2-(5-cyclopropylpyridin-2-yl)-6-(3-methoxy-2-methylphenyl)-5,6,7,8-tetrahydrophthalazin-1(2H)-one], the IC50 was < 500 nM. Compound Cc1ccc(C2CCc3c(cnn(-c4cn(C)cn4)c3=O)C2)c(C)c1 (stereo not shown) [Example 34, 6-(2,4-dimethylphenyl)-2-(1-methyl-1H-imidazol-4-yl)-5,6,7,8-tetrahydrophthalazin-1(2H)-one] has an IC50 of 1000 to 30000 nM. Cc1ccc(C2CCc3c(cnn(-c4ncccc4Cl)c3=O)C2)c(C)c1 (stereo not shown) [Example 8, 2-(3-chloropyridin-2-yl)-6-(2,4-dimethylphenyl)-5,6,7,8-tetrahydrophthalazin-1(2H)-one] was tested, and the IC50 was < 500 nM. In the case of CC(=O)Nc1cnc(-n2ncc3c(c2=O)CCC(c2ccc(C)cc2C)C3)nc1 (single isomer, unassigned; (-)) [Example 136, (−)-N-(2-(6-(2,4-dimethylphenyl)-1-oxo-5,6,7,8-tetrahydrophthalazin-2(1H)-yl)pyrimidin-5-yl)acetamide], the IC50 was 1000 to 30000 nM. For Cc1ccc(C2CCc3c(cnn(-c4cccc(C)n4)c3=O)C2)c(C)c1 (stereo not shown) [Example 17, 6-(2,4-dimethylphenyl)-2-(6-methylpyridin-2-yl)-5,6,7,8-tetrahydrophthalazin-1(2H)-one], the IC50 was < 500 nM. COc1cc(C2CCc3c(cnn(-c4ccccn4)c3=O)C2)ccc1C (stereo not shown) [Example 64, 6-(3-methoxy-4-methylphenyl)-2-(pyridin-2-yl)-5,6,7,8-tetrahydrophthalazin-1(2H)-one] was tested, and the IC50 was 1000 to 30000 nM.
